Data: PubChem BioAssay (NCI)
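Values below derive from 48-hour exposures of cells grown in 96-well plates, with endpoints linearly interpolated between the two concentrations bracketing the appropriate inhibition level. At the TGI there is no net growth.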

What was measured:
Experiment in all cases: growth of human tumour cells (NCI), 48 h
[1] = test system: MCF7 breast
[2] = test system: SN12C renal
[3] = test system: ACHN renal
[4] = test system: SR leukemia
[5] = test system: TK-10 renal
[6] = test system: HOP-92 NSCLC
[7] = test system: EKVX NSCLC
[8] = test system: K-562 leukemia
[9] = test system: NCI-H460 lung
[10] = test system: RPMI-8226 leukemia
[11] = test system: HT29 colon
[12] = test system: IGROV1 ovarian
[13] = test system: SNB-19 CNS
[14] = test system: A549 NSCLC
[15] = test system: HS 578T breast
[16] = test system: MDA-N
[17] = test system: SF-539 CNS
[18] = test system: NCI-H23 lung
[19] = test system: LOX IMVI melanoma
[20] = test system: NCI-H522 lung
[21] = test system: DU-145 prostate
[22] = test system: OVCAR-3 ovarian
[23] = test system: M14 melanoma
[24] = test system: HOP-62 NSCLC
[25] = test system: NCI/ADR-RES ovarian
[26] = test system: 786-0 renal
[27] = test system: OVCAR-5 ovarian
[28] = test system: CAKI-1 renal
[29] = test system: MDA-MB-435
[30] = test system: SK-MEL-5 melanoma
[31] = test system: CCRF-CEM leukemia
[32] = test system: OVCAR-8 ovarian
[33] = test system: SF-295 CNS
[34] = test system: UACC-257 melanoma
[35] = test system: MOLT-4 leukemia
[36] = test system: SW-620 colon
[37] = test system: T-47D breast
[38] = test system: KM12 colon
[39] = test system: HCT-116 colon
[40] = test system: COLO 205 colon
[41] = test system: SK-MEL-28 melanoma
[42] = test system: SF-268 CNS
[43] = test system: SK-MEL-2 melanoma
[44] = test system: UACC-62 melanoma
[45] = test system: HCT-15 colon
[46] = test system: PC-3 prostate
[47] = test system: UO-31 renal
[48] = test system: A498 renal
[49] = test system: U251 CNS
[50] = test system: HL-60(TB) leukemia
[51] = test system: OVCAR-4 ovarian
[52] = test system: SNB-75 CNS
[53] = test system: NCI-H226 lung
[54] = test system: MALME-3M melanoma
[55] = test system: RXF 393 renal
[56] = test system: SK-OV-3 ovarian
[57] = test system: MDA-MB-231 breast
[58] = test system: BT-549 breast
[59] = test system: HCC-2998 colon

COC(=O)C(=CNC(N)=O)C(=O)OC
TGI [1]: > 100 µM
TGI [2]: > 100 µM
TGI [3]: > 100 µM
TGI [4]: > 100 µM
TGI [5]: > 100 µM
TGI [6]: > 100 µM
TGI [7]: > 100 µM
TGI [8]: > 100 µM
TGI [9]: > 100 µM
TGI [10]: > 100 µM
TGI [11]: > 100 µM
TGI [12]: > 100 µM
TGI [13]: > 100 µM
TGI [14]: > 100 µM
TGI [15]: > 100 µM
TGI [16]: > 100 µM
TGI [17]: > 100 µM
TGI [18]: > 100 µM
TGI [19]: > 100 µM
TGI [20]: > 100 µM
TGI [21]: > 100 µM
TGI [22]: > 100 µM
TGI [23]: > 100 µM
TGI [24]: > 100 µM
TGI [25]: > 100 µM
TGI [26]: > 100 µM
TGI [27]: > 100 µM
TGI [28]: > 100 µM
TGI [29]: > 100 µM
TGI [30]: > 100 µM
TGI [31]: > 100 µM
TGI [32]: > 100 µM
TGI [33]: > 100 µM
TGI [34]: > 100 µM
TGI [35]: > 100 µM
TGI [36]: > 100 µM
TGI [37]: > 100 µM
TGI [38]: > 100 µM
TGI [39]: > 100 µM
TGI [40]: > 100 µM
TGI [41]: > 100 µM
TGI [42]: > 100 µM
TGI [43]: > 100 µM
TGI [44]: > 100 µM
TGI [45]: > 100 µM
TGI [46]: > 100 µM
TGI [47]: > 100 µM

COc1cc(C2SC(C)C(=O)N2c2ccc(-c3csc(NS(=O)(=O)c4ccc(Cl)c(OC)c4)n3)cc2)ccc1O (configuration not stated)
TGI [48]: > 100 µM
TGI [1]: > 100 µM
TGI [2]: 56.7 µM
TGI [3]: > 100 µM
TGI [4]: > 100 µM
TGI [5]: > 100 µM
TGI [6]: > 100 µM
TGI [8]: > 100 µM
TGI [9]: > 100 µM
TGI [49]: > 100 µM
TGI [11]: > 100 µM
TGI [12]: > 100 µM
TGI [13]: > 100 µM
TGI [14]: > 100 µM
TGI [15]: > 100 µM
TGI [50]: 95.7 µM
TGI [16]: > 100 µM
TGI [17]: > 100 µM
TGI [18]: 53.6 µM
TGI [19]: > 100 µM
TGI [20]: 47.1 µM
TGI [21]: > 100 µM
TGI [22]: > 100 µM
TGI [23]: > 100 µM
TGI [24]: > 100 µM
TGI [25]: > 100 µM
TGI [26]: > 100 µM
TGI [27]: > 100 µM
TGI [28]: > 100 µM
TGI [29]: > 100 µM
TGI [30]: > 100 µM
TGI [31]: > 100 µM
TGI [32]: > 100 µM
TGI [51]: 79.9 µM
TGI [33]: > 100 µM
TGI [52]: 61 µM
TGI [34]: > 100 µM
TGI [35]: > 100 µM
TGI [36]: > 100 µM
TGI [37]: > 100 µM
TGI [38]: 48.3 µM
TGI [39]: > 100 µM
TGI [53]: > 100 µM
TGI [40]: > 100 µM
TGI [54]: 82.4 µM
TGI [55]: > 100 µM
TGI [41]: > 100 µM
TGI [56]: > 100 µM
TGI [42]: 84.6 µM
TGI [43]: > 100 µM
TGI [44]: 55.3 µM
TGI [45]: > 100 µM
TGI [57]: > 100 µM
TGI [46]: > 100 µM
TGI [47]: > 100 µM

O=C(O)C1CCCCC1c1c2ccc(=O)c(O)c-2oc2c(O)c(O)ccc12 (configuration not stated)
TGI [48]: > 100 µM
TGI [1]: 37.5 µM
TGI [2]: 39.3 µM
TGI [3]: 60.1 µM
TGI [4]: > 100 µM
TGI [5]: > 100 µM
TGI [6]: > 100 µM
TGI [7]: > 100 µM
TGI [8]: 60.6 µM
TGI [9]: > 100 µM
TGI [49]: 24.8 µM
TGI [10]: 69.7 µM
TGI [11]: > 100 µM
TGI [12]: > 100 µM
TGI [13]: > 100 µM
TGI [14]: 48.6 µM
TGI [15]: > 100 µM
TGI [50]: 65.2 µM
TGI [16]: 44.9 µM
TGI [19]: 32.6 µM
TGI [20]: 67 µM
TGI [21]: > 100 µM
TGI [22]: > 100 µM
TGI [23]: > 100 µM
TGI [24]: 94.4 µM
TGI [26]: 46.2 µM
TGI [27]: > 100 µM
TGI [28]: > 100 µM
TGI [29]: 44.5 µM
TGI [30]: > 100 µM
TGI [31]: 3.11 µM
TGI [32]: 88.7 µM
TGI [51]: 64 µM
TGI [33]: 56.4 µM
TGI [52]: > 100 µM
TGI [34]: > 100 µM
TGI [35]: 84.4 µM
TGI [36]: 47.7 µM
TGI [37]: > 100 µM
TGI [38]: > 100 µM
TGI [39]: 28.4 µM
TGI [53]: 71.5 µM
TGI [40]: > 100 µM
TGI [54]: > 100 µM
TGI [55]: > 100 µM
TGI [41]: > 100 µM
TGI [56]: > 100 µM
TGI [42]: > 100 µM
TGI [43]: > 100 µM
TGI [44]: > 100 µM
TGI [57]: 38.1 µM
TGI [46]: > 100 µM
TGI [47]: > 100 µM

CNC(=S)N/N=C(\C(=N/NC(=S)NC)c1ccccn1)c1ccccn1
TGI [48]: > 100 µM
TGI [1]: > 100 µM
TGI [2]: > 100 µM
TGI [3]: > 44.6 µM
TGI [5]: > 100 µM
TGI [6]: > 100 µM
TGI [7]: > 100 µM
TGI [8]: > 100 µM
TGI [9]: > 100 µM
TGI [49]: > 100 µM
TGI [10]: > 100 µM
TGI [11]: > 100 µM
TGI [12]: > 100 µM
TGI [13]: > 100 µM
TGI [14]: > 100 µM
TGI [15]: 99.1 µM
TGI [16]: > 100 µM
TGI [17]: > 100 µM
TGI [18]: > 68.5 µM
TGI [19]: > 100 µM
TGI [20]: 72.8 µM
TGI [21]: > 100 µM
TGI [23]: 24.5 µM
TGI [24]: > 53.5 µM
TGI [26]: > 84.8 µM
TGI [27]: > 100 µM
TGI [28]: > 100 µM
TGI [29]: > 100 µM
TGI [58]: > 100 µM
TGI [30]: > 67.6 µM
TGI [32]: > 100 µM
TGI [51]: > 100 µM
TGI [33]: > 83.2 µM
TGI [52]: > 92.6 µM
TGI [34]: > 100 µM
TGI [36]: > 100 µM
TGI [38]: > 100 µM
TGI [39]: > 100 µM
TGI [53]: > 75.1 µM
TGI [40]: > 100 µM
TGI [54]: 98 µM
TGI [55]: 41.1 µM
TGI [41]: > 100 µM
TGI [59]: > 100 µM
TGI [56]: > 100 µM
TGI [42]: > 63.6 µM
TGI [43]: > 100 µM
TGI [44]: > 100 µM
TGI [45]: > 100 µM
TGI [57]: > 100 µM
TGI [46]: > 100 µM
TGI [47]: > 69.6 µM
